According to PubChem BioAssay (NCI):
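These data come from cells grown in 96-well plates and exposed to compound for 48 hours at five concentrations. GI50 is the concentration that inhibits growth by half. TGI marks complete inhibition of growth.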

Tests used:
Test in all cases: NCI-60 cell line screen, 48 h
HCC-2998 colon = tested on: HCC-2998 colon
A498 renal = tested on: A498 renal
TK-10 renal = tested on: TK-10 renal
DU-145 prostate = tested on: DU-145 prostate
MDA-MB-231 breast = tested on: MDA-MB-231 breast
OVCAR-3 ovarian = tested on: OVCAR-3 ovarian
SR leukemia = tested on: SR leukemia
HS 578T breast = tested on: HS 578T breast
COLO 205 colon = tested on: COLO 205 colon
NCI/ADR-RES ovarian = tested on: NCI/ADR-RES ovarian
T-47D breast = tested on: T-47D breast
IGROV1 ovarian = tested on: IGROV1 ovarian
786-0 renal = tested on: 786-0 renal
K-562 leukemia = tested on: K-562 leukemia
LOX IMVI melanoma = tested on: LOX IMVI melanoma
MOLT-4 leukemia = tested on: MOLT-4 leukemia
NCI-H522 lung = tested on: NCI-H522 lung
M14 melanoma = tested on: M14 melanoma
SF-539 CNS = tested on: SF-539 CNS
SN12C renal = tested on: SN12C renal
SF-295 CNS = tested on: SF-295 CNS
BT-549 breast = tested on: BT-549 breast
SW-620 colon = tested on: SW-620 colon
HT29 colon = tested on: HT29 colon
HCT-116 colon = tested on: HCT-116 colon
OVCAR-5 ovarian = tested on: OVCAR-5 ovarian
CCRF-CEM leukemia = tested on: CCRF-CEM leukemia
RXF 393 renal = tested on: RXF 393 renal
NCI-H226 lung = tested on: NCI-H226 lung
HOP-92 NSCLC = tested on: HOP-92 NSCLC
MDA-MB-435 = tested on: MDA-MB-435
HCT-15 colon = tested on: HCT-15 colon
NCI-H460 lung = tested on: NCI-H460 lung
SNB-19 CNS = tested on: SNB-19 CNS
ACHN renal = tested on: ACHN renal
MCF7 breast = tested on: MCF7 breast
SK-MEL-28 melanoma = tested on: SK-MEL-28 melanoma
SNB-75 CNS = tested on: SNB-75 CNS
SK-MEL-2 melanoma = tested on: SK-MEL-2 melanoma
OVCAR-4 ovarian = tested on: OVCAR-4 ovarian
KM12 colon = tested on: KM12 colon
HOP-62 NSCLC = tested on: HOP-62 NSCLC
SK-MEL-5 melanoma = tested on: SK-MEL-5 melanoma
SF-268 CNS = tested on: SF-268 CNS
EKVX NSCLC = tested on: EKVX NSCLC
MALME-3M melanoma = tested on: MALME-3M melanoma
SK-OV-3 ovarian = tested on: SK-OV-3 ovarian
RPMI-8226 leukemia = tested on: RPMI-8226 leukemia
U251 CNS = tested on: U251 CNS
CAKI-1 renal = tested on: CAKI-1 renal
UACC-257 melanoma = tested on: UACC-257 melanoma
OVCAR-8 ovarian = tested on: OVCAR-8 ovarian
NCI-H23 lung = tested on: NCI-H23 lung
A549 NSCLC = tested on: A549 NSCLC
PC-3 prostate = tested on: PC-3 prostate
HL-60(TB) leukemia = tested on: HL-60(TB) leukemia
UACC-62 melanoma = tested on: UACC-62 melanoma

Cc1nc([C@H]2CC[C@H]3[C@@H]4CCC5=CC(=O)CC[C@]5(C)[C@H]4CC[C@]23C)cs1
GI50 (HCC-2998 colon): 6.58 µM
TGI (HCC-2998 colon): > 100 µM
GI50 (A498 renal): > 53.3 µM
TGI (A498 renal): > 100 µM
GI50 (TK-10 renal): 3.33 µM
TGI (TK-10 renal): > 100 µM
GI50 (DU-145 prostate): > 100 µM
TGI (DU-145 prostate): > 100 µM
GI50 (MDA-MB-231 breast): > 26.7 µM
TGI (MDA-MB-231 breast): > 100 µM
GI50 (OVCAR-3 ovarian): > 22.6 µM
TGI (OVCAR-3 ovarian): > 100 µM
GI50 (SR leukemia): 0.584 µM
GI50 (HS 578T breast): > 66.1 µM
TGI (HS 578T breast): > 100 µM
GI50 (COLO 205 colon): 5.31 µM
TGI (COLO 205 colon): > 100 µM
GI50 (NCI/ADR-RES ovarian): 3.63 µM
TGI (NCI/ADR-RES ovarian): > 100 µM
GI50 (T-47D breast): 1.83 µM
TGI (T-47D breast): > 100 µM
GI50 (IGROV1 ovarian): > 40.3 µM
TGI (IGROV1 ovarian): > 100 µM
GI50 (786-0 renal): > 100 µM
TGI (786-0 renal): > 100 µM
GI50 (K-562 leukemia): 4.7 µM
TGI (K-562 leukemia): > 100 µM
GI50 (LOX IMVI melanoma): 5.09 µM
TGI (LOX IMVI melanoma): > 100 µM
GI50 (MOLT-4 leukemia): 2.25 µM
TGI (MOLT-4 leukemia): > 100 µM
GI50 (NCI-H522 lung): 7.01 µM
TGI (NCI-H522 lung): > 100 µM
GI50 (M14 melanoma): 15.9 µM
TGI (M14 melanoma): > 100 µM
GI50 (SF-539 CNS): 18.3 µM
TGI (SF-539 CNS): > 100 µM
GI50 (SN12C renal): > 100 µM
TGI (SN12C renal): > 100 µM
GI50 (SF-295 CNS): 2.21 µM
TGI (SF-295 CNS): > 100 µM
GI50 (BT-549 breast): 1.97 µM
TGI (BT-549 breast): 8.97 µM
GI50 (SW-620 colon): 7.66 µM
TGI (SW-620 colon): > 100 µM
GI50 (HT29 colon): 5.15 µM
TGI (HT29 colon): > 100 µM
GI50 (HCT-116 colon): 3.47 µM
TGI (HCT-116 colon): > 100 µM
GI50 (OVCAR-5 ovarian): > 100 µM
TGI (OVCAR-5 ovarian): > 100 µM
GI50 (CCRF-CEM leukemia): 7.26 µM
TGI (CCRF-CEM leukemia): > 100 µM
GI50 (RXF 393 renal): 10.6 µM
TGI (RXF 393 renal): > 100 µM
GI50 (NCI-H226 lung): 31.7 µM
TGI (NCI-H226 lung): > 100 µM
GI50 (HOP-92 NSCLC): > 28.9 µM
TGI (HOP-92 NSCLC): > 100 µM
GI50 (MDA-MB-435): 5.02 µM
TGI (MDA-MB-435): > 100 µM
GI50 (HCT-15 colon): 4.97 µM
TGI (HCT-15 colon): > 100 µM
GI50 (NCI-H460 lung): 2.67 µM
TGI (NCI-H460 lung): > 100 µM
GI50 (SNB-19 CNS): > 100 µM
TGI (SNB-19 CNS): > 100 µM
GI50 (ACHN renal): 7.72 µM
TGI (ACHN renal): > 100 µM
GI50 (MCF7 breast): 2.78 µM
TGI (MCF7 breast): > 100 µM
GI50 (SK-MEL-28 melanoma): > 100 µM
TGI (SK-MEL-28 melanoma): > 100 µM
GI50 (SNB-75 CNS): > 27 µM
TGI (SNB-75 CNS): > 100 µM
GI50 (SK-MEL-2 melanoma): > 100 µM
TGI (SK-MEL-2 melanoma): > 100 µM
GI50 (OVCAR-4 ovarian): 3.02 µM
TGI (OVCAR-4 ovarian): > 100 µM
GI50 (KM12 colon): 4.72 µM
TGI (KM12 colon): > 100 µM
GI50 (HOP-62 NSCLC): > 100 µM
TGI (HOP-62 NSCLC): > 100 µM
GI50 (SK-MEL-5 melanoma): 1.45 µM
TGI (SK-MEL-5 melanoma): > 100 µM
GI50 (SF-268 CNS): > 27.2 µM
TGI (SF-268 CNS): > 100 µM
GI50 (EKVX NSCLC): 1.65 µM
TGI (EKVX NSCLC): > 100 µM
GI50 (MALME-3M melanoma): 15.2 µM
TGI (MALME-3M melanoma): > 100 µM
GI50 (SK-OV-3 ovarian): > 100 µM
TGI (SK-OV-3 ovarian): > 100 µM
GI50 (RPMI-8226 leukemia): 0.531 µM
GI50 (U251 CNS): 5.27 µM
TGI (U251 CNS): > 100 µM
GI50 (CAKI-1 renal): 2.3 µM
TGI (CAKI-1 renal): > 100 µM
GI50 (UACC-257 melanoma): 3.31 µM
TGI (UACC-257 melanoma): > 100 µM
GI50 (OVCAR-8 ovarian): 4.62 µM
TGI (OVCAR-8 ovarian): > 100 µM
GI50 (NCI-H23 lung): 2.58 µM
TGI (NCI-H23 lung): > 100 µM
GI50 (A549 NSCLC): 5.25 µM
TGI (A549 NSCLC): > 100 µM
GI50 (PC-3 prostate): 3.9 µM
TGI (PC-3 prostate): > 100 µM
GI50 (HL-60(TB) leukemia): 1.53 µM
TGI (HL-60(TB) leukemia): > 100 µM
GI50 (UACC-62 melanoma): 4.1 µM
TGI (UACC-62 melanoma): > 100 µM
